Data on 20 compounds can be found in patent publication US20190315731A1, “6-(BUTA-1,3-DIYN-1-YL)BENZO[D]THIAZOLE DERIVATIVES” (Idorsia Pharmaceuticals Ltd., priority 2016, published 2019).

Format in all cases: cell-based
One assay has as its system P. aeruginosa ATCC27853. Kind of assay: Bacterial growth minimal inhibitory concentration, P. aeruginosa ATCC27853. As to conditions: quinolone-sensitive strain, cation-adjusted Mueller-Hinton Broth, microdilution; for MIC: Pseudomonas aeruginosa, ATCC27853. Here is the method: (§1) Minimal Inhibitory Concentrations (MICs; mg/L) were determined in cation-adjusted Mueller-Hinton Broth by a microdilution method following the description given in “Methods for Dilution Antimicrobial Susceptibility Tests for Bacteria that Grow Aerobically”, Approved standard, 7th ed., Clinical and Laboratory Standards Institute (CLSI) Document M7-A7, Wayne, Pa., USA (2006).
(§2) All Example compounds were tested against several Gram-positive and Gram-negative bacteria. […] K. pneumoniae A-651 is a multiply-resistant (in particular quinolone-resistant) strain, while E. coli ATCC25922 and P. aeruginosa ATCC27853 are quinolone-sensitive strains.
In general terms: Dilution methods test growth across graded concentrations, often in twofold steps.

A further assay relates to K. pneumoniae A-651. In words: Bacterial growth minimal inhibitory concentration, K. pneumoniae A-651. As to conditions: cation-adjusted Mueller-Hinton Broth, microdilution; for MIC: Klebsiella pneumoniae, A651, multiply-resistant (in particular quinolone-resistant) strain; for MIC for K. Pneumoniae A-651: multiply-resistant (in particular quinolone-resistant) strain. On the procedure: as §1, §2

In the next assay the test system is E. coli ATCC25922. Kind of assay: Bacterial growth minimal inhibitory concentration, E. coli ATCC25922. As to conditions: quinolone-sensitive strain, cation-adjusted Mueller-Hinton Broth, microdilution; for MIC: Escherichia coli, ATCC25922. Here is the method: as §1, §2
Another assay concerns wild-type E. coli A-1261. Kind of assay: Bacterial growth minimal inhibitory concentration of prodrugs, wild-type E. coli A-1261, with or without alkaline phosphatase or esterase. On the procedure: as §1
The compounds of Examples 6 and 21 were tested against wild-type E. coli A-1261 in the absence of alkaline phosphatase or esterase, in the presence of an alkaline phosphatase and in the presence of an esterase. The corresponding antibacterial test results are given in Table 2 hereafter (MICs in mg/L).

The structures appear in SMILES notation. In brackets after ≈: the same amount, converted by molar mass.

As a reminder, the MIC is the least concentration at which growth counts as inhibited. A high value points to a less susceptible organism. On to `CN1CCC(F)(C#CC#Cc2ccc3nc(CC[C@](C)(C(=O)NO)S(C)(=O)=O)sc3c2)C1` (mixture of isomers) [Example 14, (2R)-4-(6-(((3RS)-3-fluoro-1-methylpyrrolidin-3-yl)buta-1,3-diyn-1-yl)benzo[d]thiazol-2-yl)-N-hydroxy-2-methyl-2-(methylsulfonyl)butanamide], for which the MIC in the assay on P. aeruginosa ATCC27853 came to 1 µg/mL; with K. pneumoniae A-651, 0.25 µg/mL; against E. coli ATCC25922, 0.063 µg/mL.

Take `C[C@@](CCc1nc2ccc(C#CC#CC3CN(C4COC4)C3)cc2s1)(C(=O)NO)S(C)(=O)=O` [Example 1, (2R)—N-hydroxy-2-methyl-2-(methylsulfonyl)-4-(6-((1-(oxetan-3-yl)azetidin-3-yl)buta-1,3-diyn-1-yl)benzo[d]thiazol-2-yl)butanamide]: the results for the minimal inhibitory concentration (MIC) against P. aeruginosa ATCC27853, in the assay with K. pneumoniae A-651 and against E. coli ATCC25922 were 1 µg/mL (≈ 2.05 µM), 0.25 µg/mL (≈ 0.513 µM) and 0.25 µg/mL (≈ 0.513 µM), respectively.

As to `C[C@@](CCc1nc2ccc(C#CC#CCOC(=O)N3CCC(O)CC3)cc2s1)(C(=O)NO)S(C)(=O)=O` [Example 2, (2R)-5-(2-(4-(hydroxyamino)-3-methyl-3-(methylsulfonyl)-4-oxobutyl)benzo[d]thiazol-6-yl)penta-2,4-diyn-1-yl 4-hydroxypiperidine-1-carboxylate], the “MIC for P. aeruginosa ATCC27853” value in the assay on P. aeruginosa ATCC27853 came to 1 µg/mL. Moreover, the “MIC for K. Pneumoniae A-651” value against K. pneumoniae A-651 was 0.5 µg/mL. Further, the “MIC for E. coli ATCC25922” value against E. coli ATCC25922 was determined as 0.25 µg/mL.

For the compound `C[C@@](CCc1nc2ccc(C#CC#CCOC(=O)N3CC(O)C3)cc2s1)(C(=O)NO)S(C)(=O)=O` [Example 3, (2R)-5-(2-(4-(hydroxyamino)-3-methyl-3-(methylsulfonyl)-4-oxobutyl)benzo[d]thiazol-6-yl)penta-2,4-diyn-1-yl 3-hydroxyazetidine-1-carboxylate], the “MIC for P. aeruginosa ATCC27853” value against P. aeruginosa ATCC27853 is 4 µg/mL. In addition, the “MIC for K. Pneumoniae A-651” value against K. pneumoniae A-651 is 1 µg/mL. The “MIC for E. coli ATCC25922” value in the assay on E. coli ATCC25922 was 0.5 µg/mL.

Regarding `CN1CC(C#CC#Cc2ccc3nc(CC[C@](C)(C(=O)NO)S(C)(=O)=O)sc3c2)C1` [Example 4, (2R)—N-hydroxy-2-methyl-4-(6-((1-methylazetidin-3-yl)buta-1,3-diyn-1-yl)benzo[d]thiazol-2-yl)-2-(methylsulfonyl)butanamide], the MIC against P. aeruginosa ATCC27853 turned out to be 1 µg/mL (≈ 2.24 µM); with K. pneumoniae A-651, 0.5 µg/mL (≈ 1.12 µM); against E. coli ATCC25922, 0.25 µg/mL (≈ 0.561 µM).

For `C[C@@](CCc1nc2ccc(C#CC#CC3CN(CCO)C3)cc2s1)(C(=O)NO)S(C)(=O)=O` [Example 5, (2R)—N-hydroxy-4-(6-((1-(2-hydroxyethyl)azetidin-3-yl)buta-1,3-diyn-1-yl)benzo[d]thiazol-2-yl)-2-methyl-2-(methylsulfonyl)butanamide], the MIC against P. aeruginosa ATCC27853 stood at 1 µg/mL (≈ 2.1 µM); against K. pneumoniae A-651 it was 0.5 µg/mL (≈ 1.05 µM); in the assay with E. coli ATCC25922, 1 µg/mL (≈ 2.1 µM).

As to `C[C@@](CCc1nc2ccc(C#CC#CC3CN(CCOP(=O)(O)O)C3)cc2s1)(C(=O)NO)S(C)(=O)=O` [Example 6, (R)-2-(3-((2-(4-(hydroxyamino)-3-methyl-3-(methylsulfonyl)-4-oxobutyl)benzo[d]thiazol-6-yl)buta-1,3-diyn-1-yl)azetidin-1-yl)ethyl dihydrogen phosphate], the “MIC for E. coli A-1261 In the presence of an alkaline phosphatase (2 i.U./mL)” value with wild-type E. coli A-1261 (alkaline phosphatase 2 i.U./mL) came out at 0.5 µg/mL. Moreover, the “MIC for E. coli A-1261 In the presence of an esterase (10 i.U./mL)” value with wild-type E. coli A-1261 (esterase 10 i.U./mL) is more than 16 µg/mL. For the same compound, the “MIC for E. coli A-1261 In the absence of alkaline phosphatase or esterase” value with wild-type E. coli A-1261 (no alkaline phosphatase or esterase) is more than 16 µg/mL.

Regarding `C[C@@](CCc1nc2ccc(C#CC#C[C@@H]3CC[C@H]3CO)cc2s1)(C(=O)NO)S(C)(=O)=O` [Example 7, (2R)—N-hydroxy-4-(6-(((1R,2R)-2-(hydroxymethyl)cyclobutyl)buta-1,3-diyn-1-yl)benzo[d]thiazol-2-yl)-2-methyl-2-(methylsulfonyl)butanamide], the MIC against P. aeruginosa ATCC27853 is 1 µg/mL (≈ 2.17 µM); in the assay with K. pneumoniae A-651 it was 0.25 µg/mL (≈ 0.543 µM); against E. coli ATCC25922 it was 0.125 µg/mL (≈ 0.271 µM).

In the case of `CN1CC[C@H]1C#CC#Cc1ccc2nc(CC[C@](C)(C(=O)NO)S(C)(=O)=O)sc2c1` [Example 8, (2R)—N-hydroxy-2-methyl-4-(6-(((2S)-1-methylazetidin-2-yl)buta-1,3-diyn-1-yl)benzo[d]thiazol-2-yl)-2-(methylsulfonyl)butanamide], the MIC in the assay on P. aeruginosa ATCC27853 was determined as 2 µg/mL (≈ 4.49 µM); against K. pneumoniae A-651, 1 µg/mL (≈ 2.24 µM); in the assay on E. coli ATCC25922, 0.25 µg/mL (≈ 0.561 µM).

Take `C[C@@](CCc1nc2ccc(C#CC#CC3CN(CC4COC4)C3)cc2s1)(C(=O)NO)S(C)(=O)=O` [Example 9, (2R)—N-hydroxy-2-methyl-2-(methylsulfonyl)-4-(6-((1-(oxetan-3-ylmethyl)azetidin-3-yl)buta-1,3-diyn-1-yl)benzo[d]thiazol-2-yl)butanamide]: the MIC against P. aeruginosa ATCC27853 is 1 µg/mL (≈ 1.99 µM); against K. pneumoniae A-651, 0.25 µg/mL (≈ 0.498 µM); against E. coli ATCC25922, 0.125 µg/mL (≈ 0.249 µM).

On to `C[C@@](CCc1nc2ccc(C#CC#CC3CN(CCCO)C3)cc2s1)(C(=O)NO)S(C)(=O)=O` [Example 10, (2R)—N-hydroxy-4-(6-((1-(3-hydroxypropyl)azetidin-3-yl)buta-1,3-diyn-1-yl)benzo[d]thiazol-2-yl)-2-methyl-2-(methylsulfonyl)butanamide], for which the MIC in the assay with P. aeruginosa ATCC27853 was 1 µg/mL (≈ 2.04 µM); against K. pneumoniae A-651, 0.5 µg/mL (≈ 1.02 µM); with E. coli ATCC25922, 0.25 µg/mL (≈ 0.511 µM).

Consider `C[C@@](CCc1nc2ccc(C#CC#CC3CN(C4CC4)C3)cc2s1)(C(=O)NO)S(C)(=O)=O` [Example 11, (2R)-4-(6-((1-cyclopropylazetidin-3-yl)buta-1,3-diyn-1-yl)benzo[d]thiazol-2-yl)-N-hydroxy-2-methyl-2-(methylsulfonyl)butanamide], for which the MIC stood at 2 µg/mL (≈ 4.24 µM) with P. aeruginosa ATCC27853, 0.125 µg/mL (≈ 0.265 µM) in the assay on K. pneumoniae A-651 and 0.063 µg/mL (≈ 0.134 µM) against E. coli ATCC25922.

Turning to `C[C@@](CCc1nc2ccc(C#CC#CC3CN(C4CC(O)C4)C3)cc2s1)(C(=O)NO)S(C)(=O)=O` (stereo partly drawn) [Example 12, (2R)—N-hydroxy-4-(6-((1-(3-hydroxycyclobutyl)azetidin-3-yl)buta-1,3-diyn-1-yl)benzo[d]thiazol-2-yl)-2-methyl-2-(methylsulfonyl)butanamide], the figures for the MIC against P. aeruginosa ATCC27853, with K. pneumoniae A-651 and in the assay on E. coli ATCC25922 were 1 µg/mL (≈ 1.99 µM), 0.25 µg/mL (≈ 0.498 µM) and 0.125 µg/mL (≈ 0.249 µM), respectively.

Regarding `C[C@@](CCc1nc2ccc(C#CC#CC3CN(CCF)C3)cc2s1)(C(=O)NO)S(C)(=O)=O` [Example 13, (2R)-4-(6-((1-(2-fluoroethyl)azetidin-3-yl)buta-1,3-diyn-1-yl)benzo[d]thiazol-2-yl)-N-hydroxy-2-methyl-2-(methylsulfonyl)butanamide], the results for the MIC in the assay on P. aeruginosa ATCC27853, in the assay with K. pneumoniae A-651 and in the assay on E. coli ATCC25922 were 1 µg/mL (≈ 2.09 µM), 0.25 µg/mL (≈ 0.523 µM) and 0.125 µg/mL (≈ 0.262 µM), respectively.

On to `CN1CCC(F)(C#CC#Cc2ccc3nc(CC[C@](C)(C(=O)NO)S(C)(=O)=O)sc3c2)CC1` [Example 15, (2R)-4-(6-((4-fluoro-1-methylpiperidin-4-yl)buta-1,3-diyn-1-yl)benzo[d]thiazol-2-yl)-N-hydroxy-2-methyl-2-(methylsulfonyl)butanamide], for which the MIC came to 1 µg/mL (≈ 2.03 µM) in the assay with P. aeruginosa ATCC27853, 0.5 µg/mL (≈ 1.02 µM) against K. pneumoniae A-651 and 0.25 µg/mL (≈ 0.509 µM) in the assay with E. coli ATCC25922.

Turning to `C[C@@H]1[C@@H](C#CC#Cc2ccc3nc(CC[C@](C)(C(=O)NO)S(C)(=O)=O)sc3c2)CN1C` [Example 16, (2R)-4-(6-(((2R,3S)-1,2-dimethylazetidin-3-yl)buta-1,3-diyn-1-yl)benzo[d]thiazol-2-yl)-N-hydroxy-2-methyl-2-(methylsulfonyl)butanamide], the MIC was 0.5 µg/mL (≈ 1.09 µM) in the assay with P. aeruginosa ATCC27853, 0.5 µg/mL (≈ 1.09 µM) with K. pneumoniae A-651 and 0.125 µg/mL (≈ 0.272 µM) against E. coli ATCC25922.

Turning to `CN1C[C@@H](C#CC#Cc2ccc3nc(CC[C@](C)(C(=O)NO)S(C)(=O)=O)sc3c2)[C@@H]1CO` [Example 17, (2R)—N-hydroxy-4-(6-(((2R,3R)-2-(hydroxymethyl)-1-methylazetidin-3-yl)buta-1,3-diyn-1-yl)benzo[d]thiazol-2-yl)-2-methyl-2-(methylsulfonyl)butanamide], the results for the MIC in the assay on P. aeruginosa ATCC27853, against K. pneumoniae A-651 and in the assay with E. coli ATCC25922 were 1 µg/mL (≈ 2.1 µM), 1 µg/mL (≈ 2.1 µM) and 0.5 µg/mL (≈ 1.05 µM), respectively.

Regarding `CNC1(C#CC#Cc2ccc3nc(CC[C@](C)(C(=O)NO)S(C)(=O)=O)sc3c2)CC1` [Example 18, (2R)—N-hydroxy-2-methyl-4-(6-((1-(methylamino)cyclopropyl)buta-1,3-diyn-1-yl)benzo[d]thiazol-2-yl)-2-(methylsulfonyl)butanamide], the MIC in the assay on P. aeruginosa ATCC27853 turned out to be 1 µg/mL (≈ 2.24 µM); in the assay with K. pneumoniae A-651, 0.25 µg/mL (≈ 0.561 µM); in the assay on E. coli ATCC25922 it was 0.125 µg/mL (≈ 0.281 µM).

Turning to `CN1C[C@@H](C#CC#Cc2ccc3nc(CC[C@](C)(C(=O)NO)S(C)(=O)=O)sc3c2)[C@@H]1CO` [Example 19, (2R)—N-hydroxy-4-(6-(((2R,3R)-2-(hydroxymethyl)-1-methylazetidin-3-yl)buta-1,3-diyn-1-yl)benzo[d]thiazol-2-yl)-2-methyl-2-(methylsulfonyl)butanamide], the “MIC for P. aeruginosa ATCC27853” value against P. aeruginosa ATCC27853 was determined as 1 µg/mL. Further, the “MIC for K. Pneumoniae A-651” value against K. pneumoniae A-651 turned out to be 2 µg/mL. Moreover, in the assay on E. coli ATCC25922, the “MIC for E. coli ATCC25922” value is 0.5 µg/mL.

As for `CN1C[C@@H](C#CC#Cc2ccc3nc(CC[C@](C)(C(=O)NO)S(C)(=O)=O)sc3c2)C[C@@H]1CO` [Example 20, (2R)—N-hydroxy-4-(6-(((3R,5R)-5-(hydroxymethyl)-1-methylpyrrolidin-3-yl)buta-1,3-diyn-1-yl)benzo[d]thiazol-2-yl)-2-methyl-2-(methylsulfonyl)butanamide], the MIC against P. aeruginosa ATCC27853 is 1 µg/mL (≈ 2.04 µM); against K. pneumoniae A-651 it was 1 µg/mL (≈ 2.04 µM); against E. coli ATCC25922, 0.5 µg/mL (≈ 1.02 µM).
